Molecules are shown by their SMILES. ≈ marks a conversion by molar mass, not a printed value.

For the first test, the system named is P388. Put plainly: Cytotoxicity against mouse P388 cells. It counts as functional. The conditions noted are these: read-out: ED50 (the source's name).
For `C=C(C)[C@]12C[C@@H](C)[C@@]34O[C@@]5(CCCCCCC[C@H](C)[C@H]6[C@H](C)[C@H](OC(=O)c7ccccc7)[C@@](O)([C@H](O)[C@@]7(CO)O[C@H]7[C@@H]3[C@H]1O5)[C@@H]64)O2`, the EC50 was found to be 2.3 ng/mL (≈ 3.6 nM). The same measure, in the same setting: the result for `C=C(C)[C@]12C[C@@H](C)[C@@]34O[C@](/C=C/C=C/CCCCC)(O[C@@H]1[C@@H]3[C@@H]1O[C@]1(CO)[C@@H](O)[C@]1(O)C(=O)C(C)=C[C@H]14)O2` [EXCOECARIA TOXIN] reads 0.24 ng/mL (≈ 0.454 nM).

Take `C=C(C)[C@@]12O[C@@]3(/C=C/C=C/CCCCC)O[C@@H]1[C@@H]1[C@@H]4O[C@]4(CO)[C@@H](O)[C@]4(O)C(=O)C(C)=C[C@H]4[C@@]1(O3)[C@H](C)[C@H]2OC(=O)c1ccccc1` [GNIDILATIDIN]: the EC50 is below 1 ng/mL. Still for that read-out and setting: the value for `C=C(C)[C@@]12O[C@@]3(CCCCCCCCC)O[C@@H]1[C@@H]1[C@@H]4O[C@]4(CO)[C@@H](O)[C@]4(O)C(=O)C(C)=C[C@H]4[C@@]1(O3)[C@H](C)[C@H]2OC(=O)c1ccccc1` [GNIDILATIN] was below 1 ng/mL; that for `C=C(C)[C@@]12C[C@@H](C)[C@@]34OC5(O[C@@H]1[C@@H]3[C@@H]1O[C@]1(CO)[C@@H](O)[C@@]1(O)[C@H]4[C@H]([C@H](C)[C@@H]1OC(=O)c1ccccc1)[C@H](C)CCCCCC[C@H]5O)O2` [KRAUSSIANIN] was 0.78 ng/mL (≈ 1.19 nM).

The subject of the next test is P388. Nature of the test: In vivo antitumor activity against mouse P388 cells at 30 ug/kg. Type of test: functional.
Details: not given
In the case of `C=C(C)[C@@]12C[C@@H](C)[C@@]34OC5(O[C@@H]1[C@@H]3[C@@H]1O[C@]1(CO)[C@@H](O)[C@@]1(O)[C@H]4[C@H]([C@H](C)[C@@H]1OC(=O)c1ccccc1)[C@H](C)CCCCCC[C@H]5O)O2` [KRAUSSIANIN], the T/C amounted to 152%.

The values are drawn from ChEMBL document CHEMBL1151297, “Studies of the Thymelaeaceae II. Antineoplastic principles of Gnidia kraussiana” (1984).
